# pIC50: −log10 of the molar value.
# Assays:
# [1] = test system: epidermal growth factor receptor (EGFR); conditions: human, in vivo; cited from earlier work
# [2] = test system: different cancer cell lines; test: Cancer cell death, IC50; type: cell-based
# Text: Compound 1 inhibited isoprenyltransferase activity and molecular docking analysis predicted that the isoprene unit and the 4′-hydroxy group of Compound 1 may play important roles in the interaction between Compound 1 and isoprenyltransferase. In addition, Compound 1 increased the expression level of beclin-1 (three-fold), LC3-II/I (P<0.01) and […] formation in lung cancer cells. Compound 1 may therefore inhibit Ras activation through inhibition of isoprenyltransferase, leading to autophagic cell death.
# [3] = Safety pharmacology: central nervous system effect; type: in vivo; conditions: Sprague-Dawley rat
# [4] = molecular target: hERG ion channel (Homo sapiens, UniProt Q12809); test: Safety pharmacology: binding activity with hERG ion channel in vitro
# [5] = Safety pharmacology: cardiovascular effect; type: in vivo; conditions: beagle dogs
# [6] = Safety pharmacology: respiratory system effect; type: in vivo; conditions: Sprague-Dawley rat
# [7] = Preclinical pharmacokinetic studies; type: in vivo; conditions: preclinical PK studies
# [8] = Tissue distribution in rat; type: in vivo; conditions: previous study
# [9] = 7-day toxicity study in rats; conditions: Sprague-Dawley, rat, in vivo, 7-day study, read-out: maximum tolerated dose (MTD)
# [10] = 7-day toxicity study in dogs; conditions: beagle, dog, in vivo, 7-day study, read-out: maximum tolerated dose (MTD)
# [11] = 28-day toxicity study in rats; type: in vivo; conditions: rat
# Method: . Two 28-days toxicity studies were conducted to determine no observed adverse effect level (NOAEL) for Sprague-Dawley rats and beagle dogs. […]
# [12] = 28-day toxicity study in dogs; type: in vivo; conditions: 28-day study, dog
# Method: […]. Two 28-days toxicity studies were conducted to determine no observed adverse effect level (NOAEL) for Sprague-Dawley rats and beagle dogs. […].
# [13] = Toxicokinetic evaluations in rats and dogs; type: in vivo; conditions: for dose proportionality of exposure: rat and dog
# Method: Toxicokinetic evaluations were performed on a 7-day dog study (100, 250, 500 mg/kg/day single dose, 500 mg/kg/day 3 days dose) and the two 28-day studies mentioned above (Rat: 10, 30, 100 mg/kg/day single and 28 days dose; Dog: 10, 30, 100 mg/kg/day single and 28 days dose).
# [14] = Genotoxicity tests (Ames, mammalian cell gene mutation, micronucleus, erythrocyte micronucleus)
# [15] = Reproductive toxicity in vivo study; conditions: up to 80 mg/kg/day, Sprague-Dawley rats
# [16] = Phase 1 clinical study: safety/tolerability; type: in vivo
# Method: (§1) A first-in-human phase 1 study was performed to determine the MTD and to evaluate PK, safety/tolerability and efficacy profiles of exemplary Compound 1 in NSCLC patients who are refractory to conventional treatment modalities. This open-label, non-randomized, dose-escalation study, which completed in February 2013, enrolled a total of 13 patients; seven males and six females, all of whom were Asian. A total of five patients were enrolled an accelerated titration phase (one patient each in the 50, 100, 200, 300, and 450 mg dose groups) and eight patients were enrolled in a standard titration phase (three patients in the 450 mg dose group and five patients in the 600 mg dose group).
# [17] = Phase 1 clinical study: pharmacokinetics; type: in vivo
# Method: as §1
# Compound 1 will be administered as a single agent in this study at a dose of 600 mg per day (200 mg t.i.d. administered at 8-hour intervals). This dose regimen was chosen based on results from the Phase 1 clinical study involving NSCLC patients refractory to conventional treatment modalities, which reported good tolerability of Compound 1 up to 600 mg/day.
# [18] = test system: NSCLC; test: Phase 1 clinical study: efficacy (tumor overall response); type: in vivo, human; conditions: end of treatment
# Method: as §1
# The PPS was defined in the Phase 1 study as all patients who completed at least three cycles of treatment with proper imaging assessment (RECIST v.1.1).
# [19] = test system: stage IV (including pleural effusion) non-squamous NSCLC; test: Phase II study in stage IV non-squamous NSCLC patients; type: in vivo, human
# Text: This is a single-arm, open-label, Phase II study in KRAS-positive and KRAS-negative patients with stage IV (including pleural effusion) non-squamous NSCLC who have failed two lines of anti-cancer therapy. This is defined as patients with radiologically confirmed disease progression following greater than or equal to two, but less than or equal to four, prior lines of systemic anti-cancer therapy. A maximum of 60 evaluable patients with NSCLC will receive Compound 1, of which 30 patients will be KRAS-positive and 30 patients KRAS-negative. An evaluable patient will have received at least one dose of Compound 1 and have a valid baseline tumor assessment. Enrollment will continue until the target number of evaluable patients has been enrolled.
# Written informed consent must be obtained from all patients before initiating Screening. The Screening period will be up to 42 days in duration (Days −42 to −1). Following completion of all Screening assessments and confirmation of eligibility criteria, patients will receive Compound 1 200 mg three-times-a-day (t.i.d. at 8-hour intervals) on Day 0 for 12 weeks (one treatment cycle) or until documented evidence of disease progression, unacceptable toxicity, non-compliance or withdrawal of consent by the patient, or the investigator decides to discontinue treatment, whichever comes first. Study drug should be taken at 8-hour intervals. The time of study drug administration should be recorded in the patient diary.
# The primary efficacy endpoint is progression-free survival (PFS) rate at 12 weeks, which is defined as the proportion of patients alive and progression-free at Week 12. Patients will be progression-free if they have no evidence of progressive disease (defined according to RECIST guidelines, version 1.1) from the start of treatment to Week 12.
# The primary endpoint is the PFS rate at 12 weeks, defined as the proportion of patients alive and progression-free at Week 12. […]
# Tumor response will be assessed at 6-week intervals during the first treatment cycle using the RECIST criteria version 1.1. […]
# Chain of hERG ion channel (Q12809 whole entry): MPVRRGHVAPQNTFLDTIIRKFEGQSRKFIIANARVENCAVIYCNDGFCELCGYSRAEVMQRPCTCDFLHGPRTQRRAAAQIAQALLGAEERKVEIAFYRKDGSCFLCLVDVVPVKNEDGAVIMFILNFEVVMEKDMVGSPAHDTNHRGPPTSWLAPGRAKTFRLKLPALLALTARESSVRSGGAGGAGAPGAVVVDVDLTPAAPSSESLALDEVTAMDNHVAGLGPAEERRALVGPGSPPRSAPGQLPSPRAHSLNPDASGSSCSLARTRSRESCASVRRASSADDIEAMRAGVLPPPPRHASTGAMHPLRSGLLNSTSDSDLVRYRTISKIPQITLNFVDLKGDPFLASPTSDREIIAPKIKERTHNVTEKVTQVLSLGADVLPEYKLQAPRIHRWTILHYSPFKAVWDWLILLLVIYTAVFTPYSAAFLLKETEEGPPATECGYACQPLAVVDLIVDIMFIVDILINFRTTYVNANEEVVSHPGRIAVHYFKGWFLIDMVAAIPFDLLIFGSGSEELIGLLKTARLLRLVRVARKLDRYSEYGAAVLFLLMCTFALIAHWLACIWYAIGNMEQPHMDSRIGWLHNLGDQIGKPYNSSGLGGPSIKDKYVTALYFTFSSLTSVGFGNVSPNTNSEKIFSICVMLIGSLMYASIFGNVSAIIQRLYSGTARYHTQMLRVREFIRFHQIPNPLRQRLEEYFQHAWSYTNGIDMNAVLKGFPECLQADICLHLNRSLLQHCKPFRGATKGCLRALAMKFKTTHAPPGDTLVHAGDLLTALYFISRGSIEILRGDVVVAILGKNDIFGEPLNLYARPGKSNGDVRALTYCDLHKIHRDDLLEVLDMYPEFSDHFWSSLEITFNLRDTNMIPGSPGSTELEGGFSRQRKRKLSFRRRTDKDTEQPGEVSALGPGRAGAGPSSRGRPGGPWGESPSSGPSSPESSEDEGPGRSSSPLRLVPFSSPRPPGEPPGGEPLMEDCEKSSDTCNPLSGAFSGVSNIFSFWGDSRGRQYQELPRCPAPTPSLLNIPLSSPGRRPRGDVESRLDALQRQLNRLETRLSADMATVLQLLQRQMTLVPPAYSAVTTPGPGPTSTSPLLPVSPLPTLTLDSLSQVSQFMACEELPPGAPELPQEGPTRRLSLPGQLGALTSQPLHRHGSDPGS
structure (smiles),measurement,setting,value
C#Cc1cccc(Nc2ncnc3cc(OCCOC)c(OCCOC)cc23)c1 [erlotinib],response rate,[1],60%
"COC1=C(OC)C(O)C(C/C=C(\C)CC/C=C(\C)CCC=C(C)C)C(C)C1=O (stereo not shown) [Compound 1, 4-hydroxy-2,3-dimethoxy-6-methyl-5-(3,7,11-trimethyldodeca-2,6,10-trienyl)cyclohex-2-enone]",pIC50,[2],5.19 to 5.65
same,central nervous system effect,[3],no particular safety concerns
same,binding activity with hERG ion channel,[4],no particular safety concerns
same,cardiovascular effect,[5],no particular safety concerns
same,respiratory system effect,[6],no particular safety concerns
same,absorption,[7],fast absorption
same,metabolism profile,[7],CYP involved metabolism
same,organ distribution,[7],"substantial organ distribution especially in the lung, heart, and kidney"
same,tissue with the highest accumulation,[8],lung tissue
same,MTD at 7 days,[9],100 mg/kg/day
same,MTD at 7 days,[10],100 mg/kg/day
same,toxicity of the high dose,"[11]; 28-day study, 100 mg/kg/day",not severely toxic
same,NOAEL at 28 days,"[11]; Sprague-Dawley, in vivo",30 mg/kg/day
same,highest non-severely toxic dose (HNSTD),[12],30 mg/kg/day
same,Tmax,"[13]; Sprague-Dawley (rat), beagle (dog), rat, dog, in vivo, rats and dogs, 7-day and 28-day studies, read-out: peak time (Tmax)",0.25 to 6 h
same,dose proportionality of exposure,[13]; after 1 day of treatment,trend of dose proportionality
same,dose proportionality of exposure,[13]; after 28 days of treatment,inconsistent phenomena
same,genotoxicity,[14],No genotoxicity
same,reproductive toxicity,[15],no reproductive toxicity
same,patients with Grade 3 TEAEs,"[16]; 200 mg vertigo, 450 mg decreased appetite and encephalitis, unrelated to study drug",two
same,laboratory abnormality recorded as a TEAE,"[16]; 450 mg dose group, considered unrelated to study drug",one case of hematuria of Grade 1
same,patients with treatment-related TEAEs,[16]; 13 patients treated,100%
same,Dose Limiting Toxicities (DLTs),"[16]; 50, 100, 200, 300, 450, 600 mg, Intent-to-Treat Population",No Dose Limiting Toxicities
same,toxicity profile,[16]; 50-600 mg dose levels,low toxicity profile
same,safety and tolerability,"[16]; 50-600 mg dose levels, daily for 4 weeks",generally safe and well tolerated
same,"clinically significant changes in vital sign, ECG and physical examination parameters",[16]; Follow-Up Visit,None of the patients
same,"diarrhea, patients",[16]; Grade 1,69.2%
same,"gastrointestinal disorders, patients",[16]; Grade 1,53.8%
same,"nausea, patients",[16]; Grade 1,46.2%
same,"vomiting, patients",[16]; Grade 1,46.2%
same,"diarrhea, patients",[16]; Grade 2,7.7%
same,"gastrointestinal disorders, patients",[16]; Grade 2,38.5%
same,"nausea, patients",[16]; Grade 2,7.7%
same,"vomiting, patients",[16]; Grade 2,23.1%
same,Grade 4 treatment-emergent adverse events (TEAEs),[16]; NCI-CTCAE Version 4.03,No Grade 4
same,"diarrhea, patients",[16]; all grades,76.9%
same,"gastrointestinal disorders, patients",[16]; all grades,92.3%
same,"nausea, patients",[16]; all grades,53.8%
same,"vomiting, patients",[16]; all grades,69.2%
same,ECOG score,[16]; all patients at all time points except two patients in the 450 mg group (scores 4 and 2),1
same,patients reporting serious adverse events (SAEs),"[16]; two each at 450 and 600 mg, none related to study drug",four
same,differences in AUC0-24 within the 100-300 mg dose range,[17]; Day 1 and Day 28,no significant differences
same,proportionality of AUC0-24 to dose,[17]; Day 1 and Day 28,not linearly proportional
same,dose with the highest peak concentration (Cmax) over the 100-300 mg dose range,[17]; Day 28,200 mg
same,extent of absorption versus dose,"[17]; human, in vivo",dose proportional
same,rate and extent of absorption versus dose,"[17]; human, in vivo",increased in a dose proportional manner
same,rate of absorption versus dose,"[17]; human, in vivo",non-dose proportional
same,proportion of Per-Protocol patients with stable disease,[18],100%
same,subjects alive or progression free at 12 week,"[19]; 200 mg t.i.d., overall population",4 subjects out of 20
same,tumor progression free rate or proportion of patients alive at 12 weeks,"[19]; KRAS mutant patients, 200 mg t.i.d.",3/14
same,efficacy for target and non-target lesions at lung related sites,[19]; preliminary phase 2 result,5/11

# Reference: US11786485B2, “Methods and compositions for treating advanced stage non-small cell lung cancer” (Golden Biotechnology Corporation, priority 2016, dated 2023)
